{"source": "patent US10336762B2", "about": "(priority 2017, dated 2019)", "key": {"TNFα": {"test_system": "TNFα", "assay": "cells", "type": "cell-based, human", "conditions": "LPS-stimulated human monocytes, read-out: EC50 TNF"}, "IRAK4 enzyme": {"biological_target": "IRAK4 enzyme (Homo sapiens (Human), UniProt Q9NWZ3)", "sequence (Q9NWZ3 whole entry)": "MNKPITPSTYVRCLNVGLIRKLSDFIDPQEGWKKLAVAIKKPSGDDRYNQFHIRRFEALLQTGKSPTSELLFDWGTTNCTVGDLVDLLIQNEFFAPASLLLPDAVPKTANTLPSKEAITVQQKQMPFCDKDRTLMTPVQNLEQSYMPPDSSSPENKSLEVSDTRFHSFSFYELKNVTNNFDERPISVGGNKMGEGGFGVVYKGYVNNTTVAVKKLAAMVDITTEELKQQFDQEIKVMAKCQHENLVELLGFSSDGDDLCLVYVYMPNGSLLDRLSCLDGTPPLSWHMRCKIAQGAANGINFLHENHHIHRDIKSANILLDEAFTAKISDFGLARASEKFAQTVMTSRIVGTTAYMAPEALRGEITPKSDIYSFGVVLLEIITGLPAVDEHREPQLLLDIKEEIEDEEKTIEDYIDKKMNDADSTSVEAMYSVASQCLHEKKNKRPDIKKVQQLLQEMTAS", "assay": "biochemical", "type": "biochemical", "conditions": "IRAK4 enzyme, 500 μM ATP"}, "[1]": {"conditions": "Homo sapiens, Monocyte, TNFα content"}, "[2]": {"conditions": "Homo sapiens, Monocyte, TNFα by TR-FRET"}}, "note": "Read-outs that look alike come from different tables or passages of the source."}
{"smiles": "N#CCNC(=O)c1cnc(-c2ccc3cc(C#N)cnn23)cc1NC12CCC(O)(CC1)CC2", "note": "[Example 348, N-(cyanomethyl)-6-(3-cyanopyrrolo[1,2-b]pyridazin-7-yl)-4-((4-hydroxybicyclo[2.2.2]octan-1-yl)amino) nicotinamide]", "values": [{"measurement": "EC50", "setting": "TNFα; [1]", "value": 19, "unit": "nM"}, {"measurement": "IC50", "setting": "IRAK4 enzyme; TR-FRET", "value": "< 1", "unit": "nM"}]}
{"smiles": "CC(C)Nc1cc(-c2ccc3cc(C#N)cnn23)ncc1C(=O)N[C@H]1CCOC[C@@H]1F", "note": "[Example 322, 6-(3-cyanopyrrolo[1,2-b]pyridazin-7-yl)-N-((3R,4S)-3-fluorotetrahydro-2H-pyran-4-yl)-4-(isopropylamino) nicotinamide]", "values": [{"measurement": "EC50", "setting": "TNFα; [1]", "value": 169, "unit": "nM"}, {"measurement": "IC50", "setting": "IRAK4 enzyme; TR-FRET", "value": 5, "unit": "nM"}]}
{"smiles": "COC(=O)NC[C@H]1C[C@H](Nc2cc(-c3ccc4cc(C#N)cnn34)ncc2C(=O)NCC(=O)N2CC(F)(F)C2)C1", "note": "[Example 952, methyl (((1r,3r)-3-((2-(3-cyanopyrrolo[1,2-b]pyridazin-7-yl)-5-((2-(3,3-difluoroazetidin-1-yl)-2-oxoethyl)carbamoyl)pyridin-4-yl)amino)cyclo-butyl)methyl)carbamate]", "values": [{"measurement": "EC50", "setting": "TNFα; [2]", "value": 62, "unit": "nM"}, {"measurement": "IC50", "setting": "IRAK4 enzyme; TR-FRET", "value": "< 1", "unit": "nM"}]}
{"smiles": "COC(=O)N[C@H]1C[C@@H](CNC(=O)c2cnc(-c3ccc4cc(C#N)cnn34)cc2NC23CCC(O)(CC2)CC3)C1", "note": "[Example 731, methyl ((1s,3s)-3-((6-(3-cyanopyrrolo[1,2-b]pyridazin-7-yl)-4-((4-hydroxybicyclo[2.2.2]octan-1-yl)amino)nicotin-amido)methyl)cyclobutyl) carbamate]", "values": [{"measurement": "EC50", "setting": "TNFα; [1]", "value": 59, "unit": "nM"}, {"measurement": "IC50", "setting": "IRAK4 enzyme; TR-FRET (HTRF)", "value": "< 1", "unit": "nM"}]}
{"smiles": "CC(=O)NC12CC(Nc3cc(-c4ccc5cc(C#N)cnn45)ncc3C(=O)NCC(F)(F)F)(C1)C2", "note": "[Example 277, 4-((3-acetamido-bicyclo[1.1.1]pentan-1-yl)amino)-6-(3-cyano-pyrrolo[1,2-b]pyridazin-7-yl)-N-(2,2,2-trifluoroethyl) nicotinamide]", "values": [{"measurement": "EC50", "setting": "TNFα; [1]", "value": 383, "unit": "nM"}, {"measurement": "IC50", "setting": "IRAK4 enzyme; TR-FRET", "value": 5, "unit": "nM"}]}
{"smiles": "CC(C)(O)[C@H](F)CNC(=O)c1cnc(-c2ccc3cc(C#N)cnn23)cc1NC1CC2(CCN2CC(F)(F)F)C1", "note": "(stereo partly drawn) [Example 913, 6-(3-cyanopyrrolo[1,2-b]pyridazin-7-yl)-N-((R)-2-fluoro-3-hydroxy-3-methylbutyl)-4-(((4R,6s)-1-(2,2,2-trifluoroethyl)-1-azaspiro[3.3]heptan-6-yl)amino)nicotinamide]", "values": [{"measurement": "EC50", "setting": "TNFα; TNFα by TR-FRET", "value": 226, "unit": "nM"}, {"measurement": "IC50", "setting": "IRAK4 enzyme; TR-FRET", "value": 3, "unit": "nM"}]}
{"smiles": "CN1CCC[C@H](Nc2cc(-c3ccc4cc(C#N)cnn34)ncc2C(=O)NC[C@@H](F)C(C)(C)O)C1", "note": "[Example 260, 6-(3-cyanopyrrolo[1,2-b]pyridazin-7-yl)-N-((R)-2-fluoro-3-hydroxy-3-methylbutyl)-4-(((S)-1-methylpiperidin-3-yl)amino)nicotinamide]", "values": [{"measurement": "EC50", "setting": "TNFα; [1]", "value": 165, "unit": "nM"}, {"measurement": "IC50", "setting": "IRAK4 enzyme; TR-FRET", "value": 8, "unit": "nM"}]}
{"smiles": "CC(C)(O)[C@H](F)CNC(=O)c1cnc(-c2ccc3cc(C#N)cnn23)cc1Nc1ccc(C#N)cc1", "note": "[Example 140, (R)-4-((4-cyanophenyl)amino)-6-(3-cyanopyrrolo[1,2-b]pyridazin-7-yl)-N-(2-fluoro-3-hydroxy-3-methylbutyl)nicotinamide]", "values": [{"measurement": "EC50", "setting": "TNFα; [1]", "value": 58, "unit": "nM"}, {"measurement": "IC50", "setting": "IRAK4 enzyme; TR-FRET", "value": "< 1", "unit": "nM"}]}
{"smiles": "CCOc1cc(Nc2cc(-c3ccc4cc(C#N)cnn34)ncc2C(=O)NC[C@@H](F)C(C)(C)O)ccn1", "note": "[Example 847, (R)-6-(3-cyanopyrrolo[1,2-b]pyridazin-7-yl)-4-((2-ethoxypyridin-4-yl)amino)-N-(2-fluoro-3-hydroxy-3-methylbutyl)nicotinamide]", "values": [{"measurement": "EC50", "setting": "TNFα; [2]", "value": 69, "unit": "nM"}, {"measurement": "IC50", "setting": "IRAK4 enzyme; TR-FRET", "value": "< 1", "unit": "nM"}]}
{"smiles": "Cn1ccc(Nc2cc(-c3ccc4cc(C#N)cnn34)ncc2C(=O)NC[C@@H](F)C(C)(C)O)cc1=O", "note": "[Example 442, (R)-6-(3-cyanopyrrolo[1,2-b]pyridazin-7-yl)-N-(2-fluoro-3-hydroxy-3-methylbutyl)-4-((1-methyl-2-oxo-1,2-dihydropyridin-4-yl)amino)nicotinamide]", "values": [{"measurement": "EC50", "setting": "TNFα; [1]", "value": 104, "unit": "nM"}, {"measurement": "IC50", "setting": "IRAK4 enzyme; TR-FRET (HTRF)", "value": 1, "unit": "nM"}]}
{"smiles": "CCC(=O)NCc1ccc(Nc2cc(-c3ccc4cc(C#N)cnn34)ncc2C(=O)NC[C@@H](F)C(C)(C)O)cc1", "note": "[Example 204, (R)-6-(3-cyanopyrrolo[1,2-b]pyridazin-7-yl)-N-(2-fluoro-3-hydroxy-3-methylbutyl)-4-((4-(propionamido-methyl)phenyl)amino)nicotinamide]", "values": [{"measurement": "EC50", "setting": "TNFα; [1]", "value": 27, "unit": "nM"}, {"measurement": "IC50", "setting": "IRAK4 enzyme; TR-FRET", "value": "< 1", "unit": "nM"}]}
{"smiles": "CC(C)(O)[C@H](F)CNC(=O)c1cnc(-c2ccc3cc(C#N)cnn23)cc1NC1CCC2(CCC(=O)N2)CC1", "note": "(stereo partly drawn) [Example 832, 6-(3-cyanopyrrolo[1,2-b]pyridazin-7-yl)-N-((R)-2-fluoro-3-hydroxy-3-methylbutyl)-4-(((5R,8r)-2-oxo-1-azaspiro[4.5]decan-8-yl)amino) nicotinamide]", "values": [{"measurement": "EC50", "setting": "TNFα; [2]", "value": 132, "unit": "nM"}, {"measurement": "IC50", "setting": "IRAK4 enzyme; TR-FRET", "value": 1, "unit": "nM"}]}
{"smiles": "N#Cc1cnn2c(-c3cc(NC45CCC(O)(CC4)CC5)c(C(=O)N[C@H]4CCNC4=O)cn3)ccc2c1", "note": "[Example 960, (S)-6-(3-cyanopyrrolo[1,2-b]pyridazin-7-yl)-4-((4-hydroxybicyclo[2.2.2]octan-1-yl)amino)-N-(2-oxo-pyrrolidin-3-yl)nicotinamide]", "values": [{"measurement": "EC50", "setting": "TNFα; [2]", "value": 316, "unit": "nM"}, {"measurement": "IC50", "setting": "IRAK4 enzyme; TR-FRET", "value": 1, "unit": "nM"}]}
{"smiles": "COC(=O)N[C@H]1C[C@H](Nc2cc(-c3ccc4cc(C#N)cnn34)ncc2C(=O)NC[C@@H](F)C(C)(C)O)C1", "note": "[Example 455, methyl ((1R,3r)-3-((2-(3-cyanopyrrolo[1,2-b]pyridazin-7-yl)-5-(((R)-2-fluoro-3-hydroxy-3-methylbutyl)carbamoyl)pyridin-4-yl)amino)cyclobutyl)carbamate]", "values": [{"measurement": "EC50", "setting": "TNFα; [1]", "value": 118, "unit": "nM"}, {"measurement": "IC50", "setting": "IRAK4 enzyme; TR-FRET (HTRF)", "value": 1, "unit": "nM"}]}
{"smiles": "CC(C)Nc1cc(-c2ccc3cc(C#N)cnn23)ncc1C(=O)NC1CC2(C1)CC(C(C)(C)O)C2", "note": "(centres unmarked) [Example 5, 6-(3-cyanopyrrolo[1,2-b]pyridazin-7-yl)-N-(6-(2-hydroxypropan-2-yl)spiro[3.3]heptan-2-yl)-4-(isopropylamino)nicotinamide]", "values": [{"measurement": "EC50", "setting": "TNFα; [1]", "value": 207, "unit": "nM"}, {"measurement": "IC50", "setting": "IRAK4 enzyme; TR-FRET", "value": "< 1", "unit": "nM"}]}
{"smiles": "CC(C)(O)[C@H](F)CNC(=O)c1cnc(-c2ccc3cc(C#N)cnn23)cc1Nc1cnn([C@H]2CCOC2)c1", "note": "[Example 237, 6-(3-cyanopyrrolo[1,2-b]pyridazin-7-yl)-N-((R)-2-fluoro-3-hydroxy-3-methylbutyl)-4-((1-((S)-tetrahydrofuran-3-yl)-1H-pyrazol-4-yl)amino) nicotinamide]", "values": [{"measurement": "EC50", "setting": "TNFα; [1]", "value": 23, "unit": "nM"}, {"measurement": "IC50", "setting": "IRAK4 enzyme; TR-FRET", "value": 1, "unit": "nM"}]}
{"smiles": "CC(C)(C)OC(=O)NCC12CC(Nc3cc(-c4ccc5cc(C#N)cnn45)ncc3C(=O)NC[C@@H](F)C(C)(C)O)(C1)C2", "note": "[Example 550, (R)-tert-butyl ((3-((2-(3-cyanopyrrolo[1,2-b]pyridazin-7-yl)-5-((2-fluoro-3-hydroxy-3-methylbutyl)carbamoyl)pyridin-4-yl)amino)bicyclo[1.1.1]pentan-1-yl)methyl)carbamate]", "values": [{"measurement": "EC50", "setting": "TNFα; [1]", "value": 364, "unit": "nM"}, {"measurement": "IC50", "setting": "IRAK4 enzyme; TR-FRET (HTRF)", "value": 2, "unit": "nM"}]}
{"smiles": "CCC(=O)NC[C@H]1C[C@H](Nc2cc(-c3ccc4cc(C#N)cnn34)ncc2C(=O)NC[C@@H](F)C(C)(C)O)C1", "note": "[Example 538, 6-(3-cyanopyrrolo[1,2-b]pyridazin-7-yl)-N-((R)-2-fluoro-3-hydroxy-3-methylbutyl)-4-(((1r,3R)-3-(propionamidomethyl)cyclobutyl)amino)nicotin-amide]", "values": [{"measurement": "EC50", "setting": "TNFα; [1]", "value": 50, "unit": "nM"}, {"measurement": "IC50", "setting": "IRAK4 enzyme; TR-FRET (HTRF)", "value": "< 1", "unit": "nM"}]}
{"smiles": "CCS(=O)(=O)CCCNc1cc(-c2ccc3cc(C#N)cnn23)ncc1C(=O)NC[C@@H](F)C(C)(C)O", "note": "[Example 439, (R)-6-(3-cyanopyrrolo[1,2-b]pyridazin-7-yl)-4-((3-(ethylsulfonyl)propyl)amino)-N-(2-fluoro-3-hydroxy-3-methylbutyl) nicotinamide]", "values": [{"measurement": "EC50", "setting": "TNFα; [1]", "value": 40, "unit": "nM"}, {"measurement": "IC50", "setting": "IRAK4 enzyme; TR-FRET (HTRF)", "value": "< 1", "unit": "nM"}]}
